Measurements as given in US5814655A, “Non-steroidal ophthalmic mixtures” (InSite Vision Incorporated, priority 1996, dated 1998).
Each block holds one compound with its values, some of them ahead of it.

Assay: Percent of drug in suspension as a function of concentration in the formulation and pH
Type: physicochemical
[1] = pH 4.0, concentration in the formulation 1.0
[2] = pH 4.0, concentration in the formulation .001
[3] = pH 4.0, concentration in the formulation .01
[4] = pH 4.0, concentration in the formulation .1
[5] = pH 4.0, concentration in the formulation 5.0
[6] = pH 5.0, concentration in the formulation 1.0
[7] = pH 5.0, concentration in the formulation 5.0
[8] = pH 5.0, concentration in the formulation .001
[9] = pH 5.0, concentration in the formulation .01
[10] = pH 5.0, concentration in the formulation .1
[11] = pH 6.0, concentration in the formulation 1.0
[12] = pH 6.0, concentration in the formulation 5.0
[13] = pH 6.0, concentration in the formulation .001
[14] = pH 6.0, concentration in the formulation .01
[15] = pH 6.0, concentration in the formulation .1
[16] = pH 7.0, concentration in the formulation 1.0
[17] = pH 7.0, concentration in the formulation 5.0
[18] = pH 7.0, concentration in the formulation .001
[19] = pH 7.0, concentration in the formulation .01
[20] = pH 7.0, concentration in the formulation .1

SMILES: O=C(O)Cc1ccccc1Nc1c(Cl)cccc1Cl [Diclofenac Sodium, sodium ortho-(2,6-dichlorophenyl)aminophenylacetate acid]
diclofenac in suspension (in words) (below a pH of about 6.8, formulation containing 1% diclofenac sodium): virtually all | Percent Diclofenac Sodium in Suspension (pH 3.7, concentration in the formulation 1.0): 100% | Percent Diclofenac Sodium in Suspension (pH 3.7, concentration in the formulation .001): 100% | Percent Diclofenac Sodium in Suspension (pH 3.7, concentration in the formulation .01): 100% | Percent Diclofenac Sodium in Suspension (pH 3.7, concentration in the formulation .1): 100% | Percent Diclofenac Sodium in Suspension [1]: 99% | Percent Diclofenac Sodium in Suspension [2]: 99% | Percent Diclofenac Sodium in Suspension [3]: 99% | Percent Diclofenac Sodium in Suspension [4]: 99% | Percent Diclofenac Sodium in Suspension (pH 4.6, concentration in the formulation 1.0): 99% | Percent Diclofenac Sodium in Suspension (pH 4.6, concentration in the formulation .001): 90% | Percent Diclofenac Sodium in Suspension (pH 4.6, concentration in the formulation .01): 99% | Percent Diclofenac Sodium in Suspension (pH 4.6, concentration in the formulation .1): 99% | Percent Diclofenac Sodium in Suspension (pH 5.2, concentration in the formulation 1.0): 99% | Percent Diclofenac Sodium in Suspension (pH 5.2, concentration in the formulation .001): 20% | Percent Diclofenac Sodium in Suspension (pH 5.2, concentration in the formulation .01): 92% | Percent Diclofenac Sodium in Suspension (pH 5.2, concentration in the formulation .1): 99% | Percent Diclofenac Sodium in Suspension (pH 5.9, concentration in the formulation 1.0): 99% | Percent Diclofenac Sodium in Suspension (pH 5.9, concentration in the formulation .001): 0% | Percent Diclofenac Sodium in Suspension (pH 5.9, concentration in the formulation .01): 50% | Percent Diclofenac Sodium in Suspension (pH 5.9, concentration in the formulation .1): 95% | Percent Diclofenac Sodium in Suspension (pH 6.3, concentration in the formulation 1.0): 98% | Percent Diclofenac Sodium in Suspension (pH 6.3, concentration in the formulation .001): 0% | Percent Diclofenac Sodium in Suspension (pH 6.3, concentration in the formulation .01): 0% | Percent Diclofenac Sodium in Suspension (pH 6.3, concentration in the formulation .1): 76% | Percent Diclofenac Sodium in Suspension (pH 6.5, concentration in the formulation 1.0): 93% | Percent Diclofenac Sodium in Suspension (pH 6.5, concentration in the formulation .001): 0% | Percent Diclofenac Sodium in Suspension (pH 6.5, concentration in the formulation .01): 0% | Percent Diclofenac Sodium in Suspension (pH 6.5, concentration in the formulation .1): 35% | Percent Diclofenac Sodium in Suspension (pH 7.3, concentration in the formulation 1.0): 64% | Percent Diclofenac Sodium in Suspension (pH 7.3, concentration in the formulation .001): 0% | Percent Diclofenac Sodium in Suspension (pH 7.3, concentration in the formulation .01): 0% | Percent Diclofenac Sodium in Suspension (pH 7.3, concentration in the formulation .1): 0%

Percent Flurbiprofen in Suspension [1]: 99% | Percent Flurbiprofen in Suspension [5]: 99% | Percent Flurbiprofen in Suspension [2]: 20% | Percent Flurbiprofen in Suspension [3]: 92% | Percent Flurbiprofen in Suspension [4]: 99% | Percent Flurbiprofen in Suspension [6]: 99% | Percent Flurbiprofen in Suspension [7]: 99% | Percent Flurbiprofen in Suspension [8]: 0% | Percent Flurbiprofen in Suspension [9]: 33% | Percent Flurbiprofen in Suspension [10]: 93% | Percent Flurbiprofen in Suspension [11]: 80% | Percent Flurbiprofen in Suspension [12]: 98% | Percent Flurbiprofen in Suspension [13]: 0% | Percent Flurbiprofen in Suspension [14]: 0% | Percent Flurbiprofen in Suspension [15]: 0% | Percent Flurbiprofen in Suspension [16]: 24% | Percent Flurbiprofen in Suspension [17]: 92% | Percent Flurbiprofen in Suspension [18]: 0% | Percent Flurbiprofen in Suspension [19]: 0% | Percent Flurbiprofen in Suspension [20]: 0%
SMILES: CC(C(=O)O)c1ccc(-c2ccccc2)c(F)c1 (stereo not shown) [Flurbiprofen]

Percent Suprofen in Suspension [1]: 98% | Percent Suprofen in Suspension [5]: 99% | Percent Suprofen in Suspension [2]: 0% | Percent Suprofen in Suspension [3]: 0% | Percent Suprofen in Suspension [4]: 77% | Percent Suprofen in Suspension [6]: 95% | Percent Suprofen in Suspension [7]: 99% | Percent Suprofen in Suspension [8]: 0% | Percent Suprofen in Suspension [9]: 0% | Percent Suprofen in Suspension [10]: 45% | Percent Suprofen in Suspension [11]: 54% | Percent Suprofen in Suspension [12]: 95% | Percent Suprofen in Suspension [13]: 0% | Percent Suprofen in Suspension [14]: 0% | Percent Suprofen in Suspension [15]: 0% | Percent Suprofen in Suspension [16]: 0% | Percent Suprofen in Suspension [17]: 68% | Percent Suprofen in Suspension [18]: 0% | Percent Suprofen in Suspension [19]: 0% | Percent Suprofen in Suspension [20]: 0%
SMILES: CC(C(=O)O)c1ccc(C(=O)c2cccs2)cc1 (stereo not shown) [Suprofen]
